# Laboratory results reported in patent US20230322721A1 (OSLO UNIVERSITETSSYKEHUS HF, priority 2020, published 2023).
# Read-outs that look alike come from different tables or passages of the source.
# Tests used:
# [1] = Metabolic stability in mouse liver microsomes (MLM); assay type: in vitro ADME; details: 0.5 mg/ml microsomal protein, 37° C.; for microsomal CLint at 1 μM / half-life at 1 μM: pH 7.4, 1 μM compound; for half-life at 1 μM: read-out: MLM t1/2 average
# Description: (§1) Metabolic stability was investigated in mouse liver microsomes (MLM) and in human liver microsomes (HLM): […] Incubations were performed at 37° C. Control incubations with reference substances were included for each experiment. […] After the last time point, the quench plates were mixed thoroughly and centrifuged for 15 minutes at 3700 rpm and 10° C. (Eppendorf 5804R). The supernatant was transferred to new 96 well plates and subjected to LCMS analysis. The disappearance of the parent compound was determined.
# HEK293 = test: Cellular IC50 HEK293; assay type: cell-based
# Source text: (§2) XLfit (idbs) was used to determine the IC50-values in inhibition experiments. The following formula was chosen to fit the data points (Langmuir Binding Isotherm): fit=((A+(B*x))+(((C−B)*(1−exp((−1*D)*x)))/D)), res=(y−fit).
# TNKS2 = TNKS2 (Homo sapiens (Human), UniProt Q9H2K2); test: Biochemical IC50 TNKS2; details: read-out: Biochemical IC50 TNKS2
# Source text: as §2
# [2] = Metabolic stability in human liver microsomes (HLM); assay type: in vitro ADME; details: 0.5 mg/ml microsomal protein, 37° C.; for microsomal CLint at 1 μM / half-life at 1 μM: pH 7.4, 1 μM compound; for half-life at 1 μM: read-out: HLM t1/2 average
# Description: as §1
# TNKS2, sequence (Q9H2K2 whole entry): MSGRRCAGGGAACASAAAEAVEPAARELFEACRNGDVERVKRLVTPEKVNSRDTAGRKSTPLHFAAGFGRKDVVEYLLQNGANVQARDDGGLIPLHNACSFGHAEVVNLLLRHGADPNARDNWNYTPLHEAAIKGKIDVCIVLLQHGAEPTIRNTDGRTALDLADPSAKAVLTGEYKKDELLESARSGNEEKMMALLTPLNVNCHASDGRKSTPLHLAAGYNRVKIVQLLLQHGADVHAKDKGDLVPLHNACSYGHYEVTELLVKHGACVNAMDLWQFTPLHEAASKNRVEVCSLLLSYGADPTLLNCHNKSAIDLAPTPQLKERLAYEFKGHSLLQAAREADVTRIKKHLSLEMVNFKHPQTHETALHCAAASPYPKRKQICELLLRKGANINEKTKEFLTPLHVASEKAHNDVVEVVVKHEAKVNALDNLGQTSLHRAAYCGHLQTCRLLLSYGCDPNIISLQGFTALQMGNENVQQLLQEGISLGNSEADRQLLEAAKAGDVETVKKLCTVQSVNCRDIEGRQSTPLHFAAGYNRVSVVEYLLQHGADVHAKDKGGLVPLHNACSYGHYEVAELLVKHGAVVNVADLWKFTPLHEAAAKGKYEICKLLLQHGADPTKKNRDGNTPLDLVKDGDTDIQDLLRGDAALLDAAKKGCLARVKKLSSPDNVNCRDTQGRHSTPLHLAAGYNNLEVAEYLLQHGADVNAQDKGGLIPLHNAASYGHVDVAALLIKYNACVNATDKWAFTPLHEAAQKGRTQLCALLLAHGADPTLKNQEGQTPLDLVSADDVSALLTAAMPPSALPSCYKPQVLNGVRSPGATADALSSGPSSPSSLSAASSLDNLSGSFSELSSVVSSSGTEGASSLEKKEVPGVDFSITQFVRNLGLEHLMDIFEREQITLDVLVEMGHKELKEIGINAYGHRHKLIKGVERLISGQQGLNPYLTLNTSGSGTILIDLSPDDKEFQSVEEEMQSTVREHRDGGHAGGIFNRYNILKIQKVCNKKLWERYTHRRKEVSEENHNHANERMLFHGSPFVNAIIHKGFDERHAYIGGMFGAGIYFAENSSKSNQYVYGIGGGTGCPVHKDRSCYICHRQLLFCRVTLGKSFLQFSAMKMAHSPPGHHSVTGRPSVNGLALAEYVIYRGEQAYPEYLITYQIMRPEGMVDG
compound,measurement,setting,value
"CCOc1ccc(-c2nnc([C@H]3C[C@H](NC(=O)c4cccc5nccnc45)C3)n2-c2ccccc2F)[n+]([O-])c1 [Example 5, 5-ethoxy-2-(4-(2-fluorophenyl)-5-((1r,3R)-3-(quinoxaline-5-carboxamido)cyclobutyl)-4H-1,2,4-triazol-3-yl)pyridine 1-oxide]",MLM Clint average,[1]; 1 μM compound,15 μl/min/mg protein
same,MLM t1/2 average,[1]; 1 μM compound,>1.5 h
same,IC50,HEK293; HEK293; read-out: Cellular IC50 HEK293,0.75 nM
same,IC50,TNKS2,1.3 nM
same,HLM Clint average,[2]; 1 μM compound,8 μl/min/mg protein
same,HLM t1/2 average,[2]; 1 μM compound,>1.5 h
"CCOc1ccc(-c2nnc([C@H]3C[C@H](NC(=O)c4cccc5nc(O)c(O)nc45)C3)n2-c2ccccc2F)nc1 [Example 3, N-((1R,3r)-3-(5-(5-ethoxypyridin-2-yl)-4-(2-fluorophenyl)-4H-1,2,4-triazol-3-yl)cyclobutyl)-2,3-dihydroxyquinoxaline-5-carboxamide]",microsomal CLint at 1 μM,[1],9 µL/min/mg
same,half-life at 1 μM,[1],> 1.5 h
same,IC50,"HEK293; Homo sapiens, HEK293; read-out: Cellular IC50 HEK293",1250 nM
same,IC50,TNKS2,71 nM
same,microsomal CLint at 1 μM,[2],5 µL/min/mg
same,half-life at 1 μM,[2],> 1.5 h
"CCOc1ccc(-c2nnc([C@H]3C[C@H](NC(=O)c4cccc5c4ncc[n+]5[O-])C3)n2-c2ccccc2F)nc1 [Example 4, 5-(((1R,3r)-3-(5-(5-ethoxypyridin-2-yl)-4-(2-fluorophenyl)-4H-1,2,4-triazol-3-yl)cyclobutyl)carbamoyl)quinoxaline 1-oxide]",microsomal CLint at 1 μM,[1],19 µL/min/mg
same,half-life at 1 μM,[1],1.18 h
same,IC50,"HEK293; Homo sapiens, HEK293, read-out: Cellular IC50 HEK293",2.5 nM
same,IC50,TNKS2,1.6 nM
same,microsomal CLint at 1 μM,[2],5 µL/min/mg
same,half-life at 1 μM,[2],> 1.5 h
